Where two headings read alike, the source gives them in different places.
Columns and labels:
[1] = Cytotoxicity assay (MTT) in MDCK cells; type: cell-based, Canine; details: dog, read-out: CC50 (50% cytotoxic concentration)
Procedure: Initially, maximum non-toxic concentrations were determined for compounds 1–22 to exclude their non-specific antiviral activity. The in vitro cytotoxicity of the tested compounds (CC50) was studied in the normal Madin-Darby Canine Kidney cell line (MDCK) by the MTT ((3-(4,5-dimethylthiazol-2-yl)-2,5-diphenyltetrazolium bromide) test. The highest concentration tested was […]. The cytotoxicity of oseltamivir carboxylate and rimantadine was also evaluated as these have been used as reference drugs in antiviral tests. Compounds at concentration that kills no more than 50% of cells (CC50) were used for further investigation of antiviral activity.
The MDCK cells were seeded onto 96-well culture plates (10^4 cells per well) and incubated at 36 °C in 5% CO2 until continuous monolayer formation. To assess the toxicity of the compounds, a series of their 3-fold dilutions, at concentrations of 300 to 3.7 μg/mL in Eagle’s Minimal Essential Medium (MEM), were prepared. The dilutions were added to the wells of the plates. The cells were incubated for 72 h at 36 °C in a CO2 incubator under 5% CO2. Further, a microtetrazolium (MTT) assay was performed on the 96-well plates. The cells were washed 2 times with saline (0.9% NaCl), and 100 μL/well of MTT solution [3-(4,5-dimethylthiazol-2-yl)-2,5-diphenyltetrazolium bromide] at a concentration of […] in MEM was added. The plates were incubated for 1 h at 36 °C, the liquid was removed, and dimethylsulfoxide (DMSO) (0.1 mL per well) was added. The optical density (OD) of the cells was measured on a Thermo Multiskan FC spectrophotometer (Thermo Fisher Scientific, Waltham, MA, USA) at a wavelength of 540 nm. Based on the obtained data, the CC50, the concentration of the compound that destroys 50% of the cells in the culture, was calculated for each specimen.

[2] = tested on: influenza virus A/Puerto Rico/8/34 (H1N1); test: organism not typed; type: cell-based; details: for IC50: read-out: IC50 (50% inhibitory concentration)
[3] = Cytotoxic assay (MTT) against BHK-21 cells; type: cell-based; details: hamster, read-out: CC50 (50% cytotoxic concentration)
Procedure: The cytotoxic evaluation of the extracts was carried out against the BHK-21 cells. Under cultural conditions of EMEM with FBS (10%), the assaying cells were grown in 96-well bottom-transparent plates at a density of 6 × 10^4 cells/mL per well. The compounds that had been dissolved in dimethyl sulfoxide (DMSO) with six different concentrations (500, 250, 125, 62.5, 31.25, 15.625 μg/mL) were added into each well; each concentration was used in triplicate. After incubation at 37 °C under 5% CO2 atmosphere for 48 h, MTT (0.5 mg/mL) was added into each well; afterwards, 4 h incubation was carried out. The liquid in the wells was removed, and DMSO ([…]) was added to each well. The optical absorbance was recorded on a microplate reader at λ = 570 nm (Genious Tecan, Grödig, […]). The optical density in the wells was plotted against the logarithm of compound concentration, and 50% cytotoxic concentration (CC50), the compound concentration decreasing the optical density twice comparing to control wells, was calculated using the appropriate software (Table Curve 2Dv4.USA).

DENV-1:VN/2017/D7709 = test: Plaque reduction neutralization test (PRNT), DENV-1; type: cell-based, Dengue virus; details: DENV-1, BHK-21 cells; for IC50: Dengue virus, DENV1, read-out: PRNT50 DENV-1 (concentration that reduces plaque number by 50%)
Excerpt: (§1) The dengue viruses used in this study were DENV-1:VN/2017/D7709, DENV-2: 00St22A, DENV-3: SMLC50, DENV-4: SLMC318. The virus strains were supplied by the Vietnam National Institute of Hygiene and Epidemiology. The four above serotypes of the Dengue virus were propagated in BHK-21 cell lines (provided by Nagasaki University, Japan) in Eagle’s Minimum Essential Medium (EMEM; Gibco Thermo Fischer Scientific, Waltham, MA, USA) with 2% Fetal Bovine Serum (FBS; Sigma Aldrich, St. Louis, MO, USA) at 37 °C under 5% CO2 atmosphere for 5–7 days. The BHK-21 cells were cultured using 10% FBS EMEM medium.
(§2) EMEM (1 mL) containing FBS (2%) was added into each of 24-well plates (with a concentration of […] –1.0 × 10^4 cells/well). The well plates were shaken to induce the formation of identical cell layers. Afterwards, the wells were incubated at 37 °C under 5% CO2 atmosphere overnight until the cell concentration reached at 70–90%. In case this concentration was not yet reached, the incubation was allowed to continue for a further 1 to 2 days.
(§3) The compounds 4–8 and 23 were totally dissolved in EMEM with a concentration of 500 μg/mL, which was serially diluted with step 2 with EMEM containing 2% FBS; the solutions of compounds were kept at 2–8 °C. The viruses were used at the dose of 2.5 × 10^3 PFU/mL in EMEM containing 2% FBS. The virus (100 μL) was added to all the diluted samples. The virus-compounds mixtures were incubated at 37 °C under 5% CO2 atmosphere for 60 min; afterwards, the medium in all wells of the plates was removed. The virus-compounds mixture (50 μL) was added into the wells, according to the designed experimental test concentration/dilution.
(§4) The viral medium was used as the negative control. EMEM (2 mL) containing methyl cellulose (1%) was added and re-incubated at 37 °C under 5% CO2 atmosphere for 4–6 days. The typical DENV-1 and DENV-4-induced CPE appeared after 4 days of incubation, while the durations for DENV-2 and DENV-3 were 5 and 6 days, respectively. These times of incubation allowed the formation of the plaques to be visually observable and countable. The plaques can be observed under a microscope or by eyes. The cells were fixed with formalin (3.7%) for 1 h at room temperature, washed with water, and stained with crystal violet (0.25%) for 1 h at room temperature. Finally, the plaques were counted.

DENV-2: 00St22A = test: Plaque reduction neutralization test (PRNT), DENV-2; type: cell-based, Dengue virus; details: DENV-2, BHK-21 cells; for IC50: Dengue virus, DENV2, read-out: PRNT50 DENV-2 (concentration that reduces plaque number by 50%)
Excerpt: as §1, §2, §3, §4

DENV-3: SMLC50 = test: Plaque reduction neutralization test (PRNT), DENV-3; type: cell-based, Dengue virus; details: DENV-3, BHK-21 cells; for IC50: Dengue virus, DENV3, read-out: PRNT50 DENV-3 (concentration that reduces plaque number by 50%)
Excerpt: as §1, §2, §3, §4

DENV-4: SLMC318 = test: Plaque reduction neutralization test (PRNT), DENV-4; type: cell-based, Dengue virus; details: DENV-4, BHK-21 cells; for IC50: Dengue virus, DENV4, read-out: PRNT50 DENV-4 (concentration that reduces plaque number by 50%)
Excerpt: as §1, §2, §3, §4

MDCK cells = tested on: MDCK cells; design: method as in earlier work; details: ref 40 (table), read-out: CC50 (50% cytotoxic concentration); cited from earlier work
[4] = tested on: influenza virus A/Puerto Rico/8/34 (H1N1); design: method as in earlier work; details: ref 40 (table), read-out: IC50 (50% inhibitory concentration); cited from earlier work
Flu A H1N1 strain = tested on: Flu A H1N1 strain; design: method as in doi:10.1177/1934578X1801301008; details: read-out: IC50 against Flu A H1N1 strain; cited from earlier work
influenza virus A H7N1 = details: cited from earlier work

Compound | CC50 at 72 h [1] [µM] | SI (selectivity index, CC50/IC50) [2] | IC50 ([2]; MDCK, 72 h) [µM] | melting point [°C] | other results
CC1(C)CC[C@]2(C(=O)N3CCCNCC3)CC[C@]3(C)C(=CCC4[C@@]5(C)CCC(=O)C(C)(C)C5CC[C@]43C)C2C1 (stereo partly shown) [Compound 2, N-(3-Oxo-olean-12(13)-en-28-oyl)-homopiperazine Amide] | > 560 | >27 | 20 to 21 | 174 | IC50 [2]: 21 ± 3 µM
CC1(C)CC[C@]2(C(=O)NCCN3CCNCC3)CC[C@]3(C)C(=CCC4[C@@]5(C)CCC(=O)C(C)(C)C5CC[C@]43C)C2C1 (stereo partly shown) [Compound 6, N-(3-Oxo-olean-12(13)-en-28-oyl)-aminoethylpiperazine Amide] | 442 ± 31 | 5 | 82 ± 10 | 175 | CC50 at 48 h [3]: 111 ± 8 µM; IC50 (DENV-1:VN/2017/D7709): 67 ± 4 µM; IC50 (DENV-2: 00St22A): 86 ± 5 µM; IC50 (DENV-3: SMLC50): > 111 µM; IC50 (DENV-4: SLMC318): 110 ± 8 µM
CC1(C)CC[C@]2(C(=O)N3CCCNCC3)CC[C@]3(C)C(=CCC4[C@@]5(C)Cc6c([nH]c7ccccc67)C(C)(C)C5CC[C@]43C)C2C1 (stereo partly shown) [Compound 7, N-([3,2b]-Indolo-olean-12(13)-en-28-oyl)-homopiperazine Amide] | – | – | – | > 200 | CC50 at 48 h [3]: > 410 µM; IC50 (DENV-1:VN/2017/D7709): 164 ± 11 µM; IC50 (DENV-2: 00St22A): 105 ± 7 µM; IC50 (DENV-3: SMLC50): > 410 µM; IC50 (DENV-4: SLMC318): 371 ± 16 µM
CC1(C)CC[C@]2(C(=O)NCCCNCCCCNCCCN)CC[C@]3(C)C(=CCC4[C@@]5(C)Cc6c([nH]c7ccccc67)C(C)(C)C5CC[C@]43C)C2C1 (stereo partly shown) [Compound 8, N-([3,2b]-Indolo-olean-12(13)-en-28-oyl)-spermine Amide] | > 140 | >5 | 27 ± 4 | 138 | CC50 at 48 h [3]: > 351 µM; PRNT50 DENV-1 (concentration that reduces plaque number by 50%) (DENV-1:VN/2017/D7709): inactive; IC50 (DENV-1:VN/2017/D7709): 336 ± 22 µM; PRNT50 DENV-2 (concentration that reduces plaque number by 50%) (DENV-2: 00St22A): inactive; IC50 (DENV-2: 00St22A): 347 ± 21 µM; PRNT50 DENV-3 (concentration that reduces plaque number by 50%) (DENV-3: SMLC50): inactive; IC50 (DENV-3: SMLC50): > 351 µM; PRNT50 DENV-4 (concentration that reduces plaque number by 50%) (DENV-4: SLMC318): inactive; IC50 (DENV-4: SLMC318): 336 ± 28 µM
CCOC(=O)CNC(=O)CN(Cc1ccccc1)C(=O)[C@]12CCC(C)(C)CC1C1=CCC3[C@@]4(C)CCC(=O)C(C)(C)C4CC[C@@]3(C)[C@]1(C)CC2 (stereo partly shown) [Compound 9, Ethyl N-Benzyl-N-3-oxo-olean-12-en-28-glycylglycinate] | > 437 | >11 | 41 ± 5 | 245 to 247 | –
CCOC(=O)CNC(=O)CN(Cc1ccccc1)C(=O)[C@]12CCC(C)(C)CC1C1=CCC3[C@@]4(C)Cc5c([nH]c6ccccc56)C(C)(C)C4CC[C@@]3(C)[C@]1(C)CC2 (stereo partly shown) [Compound 10, Ethyl N-Benzyl-N-2,3-indolo-olean-12-en-28-glycylglycinate] | 121 ± 9 | 3 | 39 ± 4 | 197 to 199 | –
CC1(C)CC[C@]2(C(=O)N3CCCN(CC#N)CC3)CC[C@]3(C)C(=CCC4[C@@]5(C)CCC(=O)C(C)(C)C5CC[C@]43C)C2C1 (stereo partly shown) [Compound 11, N-(3-Oxo-olean-12(13)-en-28-oyl)-4′-cyanomethyl-homopiperazine Amide] | > 522 | >12 | 45 ± 6 | 191 | –
COC(=O)[C@]12CCC(C)(C)CC1C1=CCC3[C@@]4(C)CC[C@H](N)C(C)(C)C4CC[C@@]3(C)[C@]1(C)CC2 (stereo partly drawn) [Compound 21, Methyl 3β-amino-oleanoate] | – | – | – | – | CC50 (MDCK cells): 18 µM; IC50 [4]: 7.9 µM
COC(=O)[C@]12CCC(C)(C)CC1C1=CCC3[C@@]4(C)CC[C@H](NC(=O)c5ccccc5C(=O)O)C(C)(C)C4CC[C@@]3(C)[C@]1(C)CC2 (stereo partly drawn) [Compound 22, Methyl 3β-N-phthalyl-olean-12(13)-en-28-oate] | > 486 | >42 | 12 ± 2 | 240 | –
CC1(C)CC[C@]2(CO)CC[C@]3(C)C(NCCC4[C@@]5(C)CC[C@H](O)C(C)(C)C5CC[C@]43C)C2C1 (stereo partly shown) [Compound 23, C-azepano-erythrodiol] | – | – | – | – | CC50 at 48 h [3]: > 544 µM; IC50 (DENV-1:VN/2017/D7709): 107 ± 7 µM; IC50 (DENV-2: 00St22A): 68 ± 3 µM; IC50 (DENV-3: SMLC50): 228 ± 16 µM; IC50 (DENV-4: SLMC318): 108 ± 5 µM
CCC(CC)O[C@@H]1C=C(C(=O)O)C[C@H](N)[C@H]1NC(C)=O [Oseltamivir carboxylate, reference compound] | > 200 | >667 | 0.3 ± 0.01 | – | –
CC(N)C12CC3CC(CC(C3)C1)C2 (stereo not shown) [Rimantadine, reference compound] | 344 ± 19 | 6 | – | – | –
Lupane 3,4-seco-3,28-bis-methylpiperazine-amide | – | – | – | – | IC50 (Flu A H1N1 strain): 27 µM
betulonic acid L-leucine-amide | – | – | – | – | suppression of the influenza virus A H7N1 (influenza virus A H7N1): 90%; EC50 (influenza virus A H7N1; influenza virus A H7N1): 2170 nM

Source: PMC9738632 (Molecules, 2022)
